Consider 34 molecules from US20240368132A1, “ROCK2 INHIBITORS AND USES THEREOF” (President and Fellows of Harvard College, priority 2021, published 2024).

Bounds are passed on as bounds.

One experiment addresses T1, ROCK1 (Homo sapiens, UniProt Q13464).
T1 construct: purchased Reaction Biology
Nature of the experiment: ROCK1 kinase assay (Reaction Biology Hot Spot kinase assay). In kind it is biochemical. The conditions noted are these: purified kinase, 33P-ATP (10 μM), P81 filter-binding method. The protocol: (§1) ROCK2 and ROCK] kinase assays
(§2) ROCK2 and ROCK1 enzyme potencies were determined by Reaction Biology (www.reactionbiology.com) using their Hot Spot kinase Assay. The base reaction buffer for the assay was 20 mM Hepes (pH 7.5), 10 mM MgCl2, 1 mM EGTA, 0.01% Brij35, 0.02 mg/mL BSA, 0.1 mM Na3VO4, and 2 mM DTT with a 1% DMSO concentration. Required cofactors were added individually to each kinase reaction. The substrate was freshly prepared in the reaction buffer described above, and then cofactors were delivered. The purified kinase was added to the substrate solution and then gently mixed. Compounds were added from 100% DMSO into the kinase reaction mixture by Acoustic technology (Echo550; nanoliter range) and then incubated for 20 min at room temperature. ^33P-ATP (10 μM) was delivered to initiate the reaction, and then the mixture was incubated again for two hours at room temperature. […] Nat. Biotechnol. 2011 Oct. 30; 29(11):1039-45. doi: 10.1038/nbt.2017.
(§3) The compounds were categorized based on IC50 value as “+”, “++”, “+++”, and “++++”. The category “+” refers to compounds with ROCK IC50 value of >10 μM. The category “++” refers to compounds with a ROCK IC50 value of 10 to 3 μM. The category “+++” refers to compounds with ROCK IC50 value of 3 to 0.3 μM. The category “++++” refers to compounds with a ROCK IC50 value of <0.3 μM. “ND” refers to “not determined.” The compound of an “Example Number” is the final product of an Example entitled the Example Number.

The next experiment concerns the target T2, ROCK2 (Homo sapiens, UniProt O75116).
T2 construct: purchased Reaction Biology
Put plainly: ROCK2 kinase assay (Reaction Biology Hot Spot kinase assay). It is filed as biochemical. The conditions noted are these: purified kinase, 33P-ATP (10 μM), P81 filter-binding method. The protocol: as §1, §2, §3

T1 sequence (Q13464 whole entry): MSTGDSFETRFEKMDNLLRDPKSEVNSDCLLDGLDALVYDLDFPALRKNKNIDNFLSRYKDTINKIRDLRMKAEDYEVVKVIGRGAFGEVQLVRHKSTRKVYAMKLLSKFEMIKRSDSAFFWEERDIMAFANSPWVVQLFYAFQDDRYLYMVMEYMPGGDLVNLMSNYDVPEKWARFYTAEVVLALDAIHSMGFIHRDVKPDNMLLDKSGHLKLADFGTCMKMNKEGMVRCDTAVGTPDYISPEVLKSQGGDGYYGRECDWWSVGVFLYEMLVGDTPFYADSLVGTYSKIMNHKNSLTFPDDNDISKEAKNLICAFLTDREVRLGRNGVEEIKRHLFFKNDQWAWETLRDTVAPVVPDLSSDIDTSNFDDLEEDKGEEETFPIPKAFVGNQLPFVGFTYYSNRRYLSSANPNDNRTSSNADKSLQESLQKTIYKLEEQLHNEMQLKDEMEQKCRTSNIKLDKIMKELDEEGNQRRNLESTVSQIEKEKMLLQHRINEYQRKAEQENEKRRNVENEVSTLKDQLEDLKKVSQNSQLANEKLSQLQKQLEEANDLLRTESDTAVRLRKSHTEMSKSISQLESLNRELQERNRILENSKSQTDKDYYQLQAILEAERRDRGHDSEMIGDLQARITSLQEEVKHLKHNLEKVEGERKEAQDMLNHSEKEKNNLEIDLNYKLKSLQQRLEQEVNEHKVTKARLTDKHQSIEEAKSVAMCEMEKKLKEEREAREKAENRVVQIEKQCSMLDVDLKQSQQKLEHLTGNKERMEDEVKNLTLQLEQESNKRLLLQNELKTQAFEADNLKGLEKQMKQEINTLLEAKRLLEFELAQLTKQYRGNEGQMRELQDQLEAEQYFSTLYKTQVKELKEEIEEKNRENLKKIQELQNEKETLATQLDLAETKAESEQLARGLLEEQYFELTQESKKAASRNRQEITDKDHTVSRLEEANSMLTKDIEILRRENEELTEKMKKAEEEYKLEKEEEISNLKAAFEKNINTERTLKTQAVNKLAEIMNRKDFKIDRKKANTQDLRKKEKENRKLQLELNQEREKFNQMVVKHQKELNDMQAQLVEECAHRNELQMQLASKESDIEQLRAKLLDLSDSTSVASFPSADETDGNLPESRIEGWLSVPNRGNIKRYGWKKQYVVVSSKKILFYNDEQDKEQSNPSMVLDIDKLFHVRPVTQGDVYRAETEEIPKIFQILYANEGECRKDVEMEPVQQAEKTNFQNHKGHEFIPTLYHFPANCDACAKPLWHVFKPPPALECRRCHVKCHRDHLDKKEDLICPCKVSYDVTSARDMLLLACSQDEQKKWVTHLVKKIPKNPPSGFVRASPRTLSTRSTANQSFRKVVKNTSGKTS
T2 sequence (O75116 whole entry): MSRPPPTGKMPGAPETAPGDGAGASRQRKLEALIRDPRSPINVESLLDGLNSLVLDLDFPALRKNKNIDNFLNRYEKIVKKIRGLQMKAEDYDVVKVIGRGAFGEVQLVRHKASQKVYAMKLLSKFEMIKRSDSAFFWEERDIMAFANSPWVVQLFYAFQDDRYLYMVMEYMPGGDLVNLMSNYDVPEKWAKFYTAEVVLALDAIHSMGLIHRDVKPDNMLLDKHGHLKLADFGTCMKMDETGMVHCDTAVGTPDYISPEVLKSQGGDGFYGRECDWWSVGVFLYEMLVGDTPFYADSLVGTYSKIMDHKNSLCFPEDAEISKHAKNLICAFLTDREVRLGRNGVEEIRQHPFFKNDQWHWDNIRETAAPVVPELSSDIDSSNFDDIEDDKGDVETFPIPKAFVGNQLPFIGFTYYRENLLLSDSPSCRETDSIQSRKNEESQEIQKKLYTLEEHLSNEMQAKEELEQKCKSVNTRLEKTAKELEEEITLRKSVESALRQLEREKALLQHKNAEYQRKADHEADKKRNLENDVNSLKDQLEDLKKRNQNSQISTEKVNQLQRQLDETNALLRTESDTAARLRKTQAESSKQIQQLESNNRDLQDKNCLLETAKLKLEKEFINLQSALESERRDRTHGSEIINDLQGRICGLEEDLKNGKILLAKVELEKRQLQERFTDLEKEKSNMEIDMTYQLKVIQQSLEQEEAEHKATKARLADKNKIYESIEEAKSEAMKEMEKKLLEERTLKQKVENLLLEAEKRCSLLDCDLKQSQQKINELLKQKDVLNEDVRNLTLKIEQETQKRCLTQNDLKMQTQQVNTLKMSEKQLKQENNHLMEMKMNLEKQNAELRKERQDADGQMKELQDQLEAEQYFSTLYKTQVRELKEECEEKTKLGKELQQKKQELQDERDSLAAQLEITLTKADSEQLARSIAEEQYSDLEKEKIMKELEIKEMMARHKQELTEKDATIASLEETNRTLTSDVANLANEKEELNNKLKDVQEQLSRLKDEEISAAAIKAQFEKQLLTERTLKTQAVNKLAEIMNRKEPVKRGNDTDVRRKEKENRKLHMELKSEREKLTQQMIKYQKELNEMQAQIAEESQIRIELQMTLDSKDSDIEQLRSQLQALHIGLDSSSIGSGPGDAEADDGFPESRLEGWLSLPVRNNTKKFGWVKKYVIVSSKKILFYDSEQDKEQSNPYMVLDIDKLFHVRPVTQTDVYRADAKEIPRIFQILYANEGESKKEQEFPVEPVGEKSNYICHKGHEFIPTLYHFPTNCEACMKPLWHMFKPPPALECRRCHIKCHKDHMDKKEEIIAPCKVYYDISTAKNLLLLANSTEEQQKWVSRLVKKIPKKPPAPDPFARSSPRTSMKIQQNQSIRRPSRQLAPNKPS

A word on the IC50: it is the concentration that inhibits the measured activity by half. The low end stands for inhibition by little substance, the high end for a need for much substance. In the case of `Cn1cc(C(=O)Nc2cc(-n3nc(Nc4ccc5[nH]ncc5c4Cl)c4ccccc43)ccn2)cn1` [Example 53, N-(4-(3-((4-chloro-1H-indazol-5-yl)amino)-1H-indazol-1-yl)pyridin-2-yl)-1-methyl-1H-pyrazole-4-carboxamide], the IC50 at ROCK1 is 3 to 10 µM; at ROCK2 it was below 0.3 µM.
The corresponding values for `O=C(Nc1cccc(-n2nc(Nc3ccc4[nH]ncc4c3Cl)c3ccccc32)c1)c1cccnc1` [Example 32] are above 10 µM and below 0.3 µM.
The corresponding values for `O=C(Nc1cccc(-c2nc(Nc3ccc4[nH]ncc4c3)no2)c1)c1cccnc1` [Example 41] are 0.3 to 3 µM and below 0.3 µM.
The like results for `Cn1cc(C(=O)Nc2cccc(-n3nc(Nc4ccc5[nH]ncc5c4Cl)c4ccncc43)c2)cn1` [Example 59] were, in that order, above 10 µM and below 0.3 µM.
For `Cn1cc(C(=O)Nc2cccc(-n3nc(Nc4ccc5[nH]ncc5c4)c4ccccc43)n2)cn1` [Example 45, N-(6-(3-((1H-indazol-5-yl)amino)-1H-indazol-1-yl)pyridin-2-yl)-1-methyl-1H-pyrazole-4-carboxamide], the IC50 on ROCK1 and at ROCK2 was below 0.3 µM each time.
Consider `COc1cc(-n2nc(C(F)(F)F)cc2Nc2ccc3[nH]ncc3c2Cl)ccc1OCC(=O)NC(C)C` [Example 70, 2-(4-(5-((4-chloro-1H-indazol-5-yl)amino)-3-(trifluoromethyl)-1H-pyrazol-1-yl)-2-methoxyphenoxy)—N-isopropylacetamide], for which the IC50 at ROCK1 and on ROCK2 was 0.3 to 3 µM each time.
On to `CC(C)NC(=O)COc1ccc(-n2nc(Nc3ccc4[nH]ncc4c3)c3ccccc32)cc1` [Example 16], for which the IC50 at ROCK1 is above 10 µM; on ROCK2, 0.3 to 3 µM.
For the molecule `Cn1cc(-c2nc3cc(-n4ccc(Nc5ccc6[nH]ncc6c5Cl)n4)ccc3o2)cn1` [Example 65, 4-chloro-N-(1-(2-(1-methyl-1H-pyrazol-4-yl)benzo[d]oxazol-5-yl)-1H-pyrazol-3-yl)-1H-indazol-5-amine], the IC50 on ROCK1 is 0.3 to 3 µM; on ROCK2, below 0.3 µM.
For `Cc1cn(-c2ccc3c(c2)CCN(C(=O)NC(C)C)C3)nc1Nc1ccc2[nH]ncc2c1Cl` [Example 78, 6-(3-((4-chloro-1H-indazol-5-yl)amino)-4-methyl-1H-pyrazol-1-yl)-N-isopropyl-3,4-dihydroisoquinoline-2(1H)-carboxamide], the IC50 on ROCK1 is 0.3 to 3 µM; on ROCK2, below 0.3 µM.
On to `COc1cc(-n2ccc(Nc3ccc4[nH]ncc4c3)n2)ccc1OCC(=O)NC(C)C` [Example 11], for which the IC50 at ROCK1 was above 10 µM; on ROCK2, 0.3 to 3 µM.
On to `COc1cc(-n2cc(C)c(Nc3ccc4[nH]ncc4c3Cl)n2)ccc1C(=O)N1CCCC1` [Example 89], for which the IC50 on ROCK1 was above 10 µM; on ROCK2, 0.3 to 3 µM.
The like results for `COc1cc(-c2nnc(Nc3ccc4[nH]ncc4c3Cl)o2)ccc1OCC(=O)NC(C)C` [Example 72, 2-[4-[5-[(4-chloro-1H-indazol-5-yl)amino]-1,3,4-oxadiazol-2-yl]-2-methoxy-phenoxy]-N-isopropyl-acetamide] were, in that order, 0.3 to 3 µM and below 0.3 µM.
On to `COc1nc(-n2nc(Nc3ccc4[nH]ncc4c3Cl)c3ccccc32)ccc1OCC(=O)NC(C)C` [Example 19], for which the IC50 on ROCK1 and on ROCK2 was below 0.3 µM throughout.
Turning to `Clc1c(Nc2nnc(-c3ccnc(-c4ncco4)c3)o2)ccc2[nH]ncc12` [Example 49], the IC50 at ROCK1 and at ROCK2 was below 0.3 µM each time.
`O=C(Nc1cccc(-c2noc(Nc3ccc4[nH]ncc4c3Cl)n2)c1)c1ccccc1F` [Example 61, N-(3-(5-((4-chloro-1H-indazol-5-yl)amino)-1,2,4-oxadiazol-3-yl)phenyl)-2-fluorobenzamide]: the IC50 on ROCK1 was below 0.3 µM; on ROCK2 it was above 10 µM.
The corresponding values for `COc1cc(-n2cc(C)c(Nc3ccc4[nH]ncc4c3Cl)n2)ccc1C(=O)NC1CCCC1` [Example 87] are 0.3 to 3 µM and below 0.3 µM.
The like results for `O=C(Nc1cccc(-c2nnc(Nc3ccc4[nH]ncc4c3)o2)c1)c1cn[nH]c1` [Example 37] were, in that order, above 10 µM and above 10 µM.
The like results for `Cc1coc(-c2cc(-c3nnc(Nc4ccc5[nH]ncc5c4Cl)o3)ccn2)n1` [Example 48, N-(4-chloro-1H-indazol-5-yl)-5-(2-(4-methyloxazol-2-yl)pyridin-4-yl)-1,3,4-oxadiazol-2-amine] were, in that order, below 0.3 µM and below 0.3 µM.
As to `Cc1cn(-c2cccc(NC(=O)c3cnn(C)c3)c2)nc1Nc1ccc2[nH]ncc2c1` [Example 3, N-(3-(3-((1H-indazol-5-yl)amino)-4-methyl-1H-pyrazol-1-yl)phenyl)-1-methyl-1H-pyrazole-4-carboxamide], the IC50 on ROCK1 and on ROCK2 was below 0.3 µM in each case.
As for `O=C(Nc1cccc(-c2nc(Nc3ccc4[nH]ncc4c3Cl)no2)c1)c1ccccc1F` [Example 64], the IC50 is 0.3 to 3 µM on ROCK1 and below 0.3 µM at ROCK2.
Turning to `Cn1cc(C(=O)Nc2cccc(-c3noc(Nc4ccc5[nH]ncc5c4)n3)c2)cn1` [Example 42], the IC50 on ROCK1 and on ROCK2 was below 0.3 µM throughout.
Turning to `O=C(Nc1cccc(-c2cc(Nc3ccc4[nH]ncc4c3)no2)c1)c1cccnc1` [Example 35], the IC50 at ROCK1 is 0.3 to 3 µM; at ROCK2, below 0.3 µM.
The corresponding values for `Cn1cc(C(=O)Nc2cccc(-c3noc(Nc4ccc5[nH]ncc5c4Cl)n3)c2)cn1` [Example 62, N-(3-(5-((4-chloro-1H-indazol-5-yl)amino)-1,2,4-oxadiazol-3-yl)phenyl)-1-methyl-1H-pyrazole-4-carboxamide] are below 0.3 µM and below 0.3 µM.
For `Cn1cc(C(=O)Nc2cccc(-n3nc(Nc4ccc5[nH]ncc5c4Cl)c4ccccc43)c2)cn1` [Example 31], the IC50 at ROCK1 is 0.3 to 3 µM; at ROCK2, below 0.3 µM.
Turning to `Cc1cn(-c2ccc3c(c2)CCN(C(=O)C(C)C)C3)nc1Nc1ccc2[nH]ncc2c1Cl` [Example 80, 1-[6-[3-[(4-chloro-1H-indazol-5-yl)amino]-4-methyl-pyrazol-1-yl]-3,4-dihydro-1H-isoquinolin-2-yl]-2-methyl-propan-1-one], the IC50 on ROCK1 was above 10 µM. Moreover, the “ROCK2 IC50” value at ROCK2 is “+ +”.
Consider `Cn1cc(C(=O)Nc2cccc(-n3ccc(Nc4ccc5[nH]ncc5c4)n3)c2)cn1` [Example 1, N-(3-(3-((1H-indazol-5-yl)amino)-1H-pyrazol-1-yl)phenyl)-1-methyl-1H-pyrazole-4-carboxamide], for which the half-inhibitory concentration (IC50) was 3 to 10 µM at ROCK1 and 0.3 to 3 µM on ROCK2.
The like results for `COC(=O)CN1CCOc2cc(-n3cc(C)c(Nc4ccc5[nH]ncc5c4Cl)n3)ccc21` [Example 76, methyl 2-[7-[3-[(4-chloro-1H-indazol-5-yl)amino]-4-methyl-pyrazol-1-yl]-2,3-dihydro-1,4-benzoxazin-4-yl]acetate] were, in that order, above 10 µM and above 10 µM.
The corresponding values for `Cn1cc(C(=O)Nc2cccc(-c3nnc(Nc4ccc5[nH]ncc5c4Cl)o3)c2)cn1` [Example 55, N-(3-(5-((4-chloro-1H-indazol-5-yl)amino)-1,3,4-oxadiazol-2-yl)phenyl)-1-methyl-1H-pyrazole-4-carboxamide] are below 0.3 µM and below 0.3 µM.
Regarding `COc1cc(-n2cc(C)c(Nc3ccc4[nH]ncc4c3Cl)n2)ccc1C(=O)NC(C)C` [Example 85, 4-(3-((4-chloro-1H-indazol-5-yl)amino)-4-methyl-1H-pyrazol-1-yl)-N-isopropyl-2-methoxybenzamide], the IC50 on ROCK1 and on ROCK2 was below 0.3 µM in each case.
For `Cc1cc(Nc2ccc3[nH]ncc3c2)nn1-c1cccc(NC(=O)c2cccnc2)c1` [Example 9], the IC50 at ROCK1 was 0.3 to 3 µM; at ROCK2 it was below 0.3 µM.
The like results for `Cn1cc(-n2nc(Nc3ccc4[nH]ncc4c3Cl)c3ccccc32)cc(NC(=O)c2ccccc2F)c1=O` [Example 68, N-(5-(3-((4-chloro-1H-indazol-5-yl)amino)-1H-indazol-1-yl)-1-methyl-2-oxo-1,2-dihydropyridin-3-yl)-2-fluorobenzamide] were, in that order, below 0.3 µM and below 0.3 µM.
The corresponding values for `Cn1cc(C(=O)Nc2cccc(-n3nc(Nc4ccc5[nH]ncc5c4Cl)c4ccccc43)n2)cn1` [Example 46] are below 0.3 µM and below 0.3 µM.
The like results for `O=C(Cc1ccccn1)Nc1cccc(-n2nc(Nc3ccc4[nH]ncc4c3)c3ccccc32)c1` [Example 26] were, in that order, 3 to 10 µM and 0.3 to 3 µM.
Regarding `COc1cc(-c2nc(Nc3ccc4[nH]ncc4c3Cl)no2)ccc1OCC(=O)NC(C)C` [Example 73, 2-[4-[3-[(4-chloro-1H-indazol-5-yl)amino]-1,2,4-oxadiazol-5-yl]-2-methoxy-phenoxy]-N-isopropyl-acetamide], the IC50 on ROCK1 was 0.3 to 3 µM; on ROCK2 it was below 0.3 µM.
